According to patent US20240376097A1, “BCL-2 Inhibitor” (BeiGene Ltd., priority 2020, published 2024):
Read-outs that look alike come from different tables or passages of the source.

Key:
[1] = target: recombinant human Bcl-2 D103Y protein (Homo sapiens (Human), UniProt P10415, D103Y); assay: Bcl-2-D103Y Biochemical Assay (TR-FRET); format: binding; conditions: for IC50: TR-FRET, FITC labeled Bak peptide; for Ratio of Bcl-2 D103Y/Bcl-2 WT: ratio of IC50
Outline: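 Compounds titrated against the Bcl-2 D103Y–ligand interaction; inhibition derived from the TR-FRET emission ratio 490 nm/520 nm after 337 nm excitation. Four-parameter logistic fitting gave IC50.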

[2] = test system: RS4;11 (BCL-2 dependent acute lymphoblastic leukemia cell line); assay: RS4;11 Cell Proliferation Assay; format: cell-based; conditions: Homo sapiens, RS4-11, RS4;11 cells, read-out: Cellular proliferation assay (IC50, nM) RS4
Outline: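 Viability measured via CellTiter-Glo luminescence after a 48 h, 37 °C exposure to compounds (10 points, highest 1 μM). Seeding was 50,000 RS4;11 cells per well in 10% FBS RPMI-1640; IC50 given as mean.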

[3] = test system: BCL-2 G101V knock-in cell line H96 (derive from RS4;11); assay: Bcl 2-G101V Knock-In RS4;11 Cell Proliferation Assay; format: cell-based; conditions: Homo sapiens, RS4;11 Bcl-2 G101V knock-in clone H96, 48 hrs, CellTiter-GLO, read-out: Cellular proliferation assay (IC50, nM) RS4
Outline: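 CellTiter-Glo luminescence after 48 h, 37 °C compound treatment (10 concentrations, maximum 1 μM or 10 μM) gave mean IC50 values. Cells were 50,000 per well of H96, a BCL2-G101V knock-in single clone derived from RS4;11 by Cas9 editing.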

[4] = target: recombinant human Bcl-2-G101V protein (Homo sapiens (Human), UniProt P10415, G101V); assay: Bcl-2-G101V TR-FRET Assay; format: binding; conditions: Bcl-2 G101V mutant, TR-FRET; read-out: Biochemical assay (IC50, nM) Bcl-2 G101V
Outline: (§1)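 TR-FRET read at excitation 337 nm with emission at 490 nm and 520 nm. Inhibition of Bcl-2-G101V binding to its ligand across increasing compound concentrations was calculated from the 490/520 nm fluorescence ratio, and IC50 values came from four-parameter logistic fits.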

[5] = test system: recombinant human Bcl-2-G101V protein; assay: Bcl-2-G101V TR-FRET Assay; format: binding; conditions: for Ratio of Bcl-2 G101V/WT: ratio of biochemical IC50 Bcl-2 G101V / Bcl-2 WT
Outline: as §1

[6] = target: Recombinant human Bcl-2 protein (Homo sapiens (Human), UniProt P10415); assay: Bcl-2 TR-FRET Assay; format: binding
Outline: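 TR-FRET read (337 nm excitation, 520/490 nm emission) after 1 h with 0.5 nM FITC-labeled Bak peptide and Tb-cryptate anti-6His antibody. Bcl-2 at 0.05 nM had been pre-incubated 0.5 h with compound. IC50 fitted by four-parameter logistic equation.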

[7] = Bcl-2 wild type, TR-FRET, read-out: Biochemical assay (IC50, nM) Bcl-2 WT
[8] = wild type Bcl-2, unit inferred, read-out: Bcl-2 WT

SMILES | IC50 [1] | Ratio of Bcl-2 D103Y/Bcl-2 WT [1] | IC50 [2] | IC50 [3] | IC50 [4] | Ratio of Bcl-2 G101V/WT [5] | IC50 [6, 7] | IC50 [6, 8] | ratio of Bcl-2 D103Y/Bcl-2 wt, compared with F91b in WO2019210828 ([1]; comparison in words) | ratio of IC50 of Bcl-2 G101V/Bcl-2 wt, compared with Example F132b in WO2019210828 and ABT-199 (venetoclax) ([5]; comparison in words)
CCOc1ccc(CN2CCN(C3CC4(CCN(c5ccc(C(=O)NS(=O)(=O)c6ccc(NC[C@H]7CC[C@](C)(O)CC7)c([N+](=O)[O-])c6)c(Oc6cnc7[nH]ccc7c6)c5)CC4)C3)C(c3ccccc3C(C)C)C2)cc1 (stereo partly drawn) [Example 40, 2-((1H-pyrrolo[2,3-b]pyridin-5-yl)oxy)-4-(2-(4-(4-ethoxybenzyl)-2-(2-isopropylphenyl)piperazin-1-yl)-7-azaspiro[3.5]nonan-7-yl)-N-((4-((((1r,4r)-4-hydroxy-4-methylcyclohexyl)methyl)amino)-3-nitrophenyl)sulfonyl)benzamide] | 0.72 nM | 3.8 | 0.85 nM | 8.4 nM | 1.3 nM | 6.8 | 0.19 nM | 0.19 nM |  | 
COc1cc(CN2CCN(C3CC4(C3)CN(c3ccc(C(=O)NS(=O)(=O)c5ccc(NC[C@H]6CC[C@](C)(O)CC6)c([N+](=O)[O-])c5)c(Oc5cnc6[nH]ccc6c5)c3)C4)[C@H](c3ccccc3C(C)C)C2)ccc1C [Example 275, 2-((1H-pyrrolo[2,3-b]pyridin-5-yl)oxy)-N-((4-((((1r,4r)-4-hydroxy-4-methylcyclohexyl)methyl)amino)-3-nitrophenyl)sulfonyl)-4-(6-((R)-2-(2-isopropylphenyl)-4-(3-methoxy-4-methylbenzyl)piperazin-1-yl)-2-azaspiro[3.3]heptan-2-yl)benzamide] | 0.21 nM | 0.76 | 0.14 nM | 0.38 nM | 0.54 nM | 2 | 0.27 nM | 0.27 nM |  | 
[2H]C([2H])([2H])Oc1ccc(CN2CCN(C3CC4(C3)CN(c3ccc(C(=O)NS(=O)(=O)c5ccc(NC[C@H]6CC[C@](C)(O)CC6)c([N+](=O)[O-])c5)c(Oc5cnc6[nH]cc(F)c6c5)c3)C4)[C@H](c3ccccc3C(C)C)C2)cc1OC([2H])([2H])[2H] [Example 197, 4-(6-((R)-4-(3,4-bis(methoxy-d3)benzyl)-2-(2-isopropylphenyl)piperazin-1-yl)-2-azaspiro[3.3]heptan-2-yl)-2-((3-fluoro-1H-pyrrolo[2,3-b]pyridin-5-yl)oxy)-N-((4-((((1r,4r)-4-hydroxy-4-methylcyclohexyl)methyl)amino)-3-nitrophenyl)sulfonyl)benzamide] | 0.089 nM | 1.2 | 0.16 nM | 0.29 nM | 0.15 nM | 1.9 | 0.076 nM | 0.076 nM |  | 
CC(C)c1ccccc1C1CN(Cc2ccc3c(c2)OCO3)CCN1C1CC2(CCN(c3ccc(C(=O)NS(=O)(=O)c4ccc(NC[C@H]5CC[C@](C)(O)CC5)c([N+](=O)[O-])c4)c(Oc4cnc5[nH]ccc5c4)c3)CC2)C1 (stereo partly drawn) [Example 122, 2-((1H-pyrrolo[2,3-b]pyridin-5-yl)oxy)-4-(2-(4-(benzo[d][1.3]dioxol-5-ylmethyl)-2-(2-isopropylphenyl)piperazin-1-yl)-7-azaspiro[3.5]nonan-7-yl)-N-((4-((((1r,4r)-4-hydroxy-4-methylcyclohexyl)methyl)amino)-3-nitrophenyl)sulfonyl)benzamide] | 0.47 nM | 2.5 | 0.3 nM | 2.2 nM | 0.92 nM | 5 | 0.19 nM | 0.19 nM |  | 
COc1cc(CN2CCN(C3CC4(C3)CN(c3ccc(C(=O)NS(=O)(=O)c5ccc(NC[C@H]6CC[C@](C)(O)CC6)c([N+](=O)[O-])c5)c(Oc5cnc6[nH]cc(F)c6c5)c3)C4)[C@H](c3ccccc3C(C)C)C2)ccc1C1CCOCC1 [Example 367] | 0.4 nM | 1.2 | 0.11 nM | 0.3 nM | 0.9 nM | 2.6 | 0.35 nM |  |  | 
COc1ccc(CN2CCN(C3CC4(C3)CN(c3ccc(C(=O)NS(=O)(=O)c5ccc(NC[C@H]6CC[C@](C)(O)CC6)c([N+](=O)[O-])c5)c(Oc5cnc6[nH]ccc6c5)c3)C4)C(c3ccccc3C(C)C)C2)cc1 (stereo partly drawn) [Example 83, 2-((1H-pyrrolo[2,3-b]pyridin-5-yl)oxy)-N-((4-((((1r,4r)-4-hydroxy-4-methylcyclohexyl)methyl)amino)-3-nitrophenyl)sulfonyl)-4-(6-(2-(2-isopropylphenyl)-4-(4-methoxybenzyl)piperazin-1-yl)-2-azaspiro[3.3]heptan-2-yl) benzamide] | 0.16 nM | 2 | 0.27 nM | 0.73 nM | 0.25 nM | 3.1 | 0.079 nM | 0.079 nM | significantly lower | much lower
CC(C)c1ccccc1C1CN(Cc2ccccn2)CCN1C1CC2(CCN(c3ccc(C(=O)NS(=O)(=O)c4ccc(NC[C@H]5CC[C@](C)(O)CC5)c([N+](=O)[O-])c4)c(Oc4cnc5[nH]ccc5c4)c3)CC2)C1 (stereo partly drawn) [Example 131] | 0.29 nM | 5.7 | 0.57 nM | 4.34 nM | 0.51 nM | 10 | 0.05 nM | 0.05 nM |  | 
COc1ccc(CN2CCN(C3CC4(C3)CN(c3ccc(C(=O)NS(=O)(=O)c5ccc(NC[C@H]6CC[C@](C)(O)CC6)c([N+](=O)[O-])c5)c(Oc5cnc6[nH]cc(Cl)c6c5)c3)C4)[C@H](c3ccccc3C(C)C)C2)cc1OC [Example 164, 2-((3-chloro-1H-pyrrolo[2,3-b]pyridin-5-yl)oxy)-4-(6-((R)-4-(3,4-dimethoxybenzyl)-2-(2-isopropylphenyl)piperazin-1-yl)-2-azaspiro[3.3]heptan-2-yl)-N-((4-((((1r,4r)-4-hydroxy-4-methylcyclohexyl)methyl)amino)-3-nitrophenyl)sulfonyl)benzamide] | 0.12 nM | 1 | 0.23 nM | 0.82 nM | 0.35 nM | 3 | 0.12 nM | 0.12 nM |  | 
[2H]C([2H])([2H])Oc1cc(CN2CCN(C3CC4(C3)CN(c3ccc(C(=O)NS(=O)(=O)c5ccc(NC[C@H]6CC[C@](C)(O)CC6)c([N+](=O)[O-])c5)c(Oc5cnc6[nH]cc(F)c6c5)c3)C4)[C@H](c3ccccc3C(C)C)C2)cc2c1OCC2(C)C [Example 326, 2-((3-fluoro-1H-pyrrolo[2,3-b]pyridin-5-yl)oxy)-N-((4-((((1r,4r)-4-hydroxy-4-methylcyclohexyl)methyl)amino)-3-nitrophenyl)sulfonyl)-4-(6-((R)-2-(2-isopropylphenyl)-4-((7-(methoxy-d3)-3,3-dimethyl-2,3-dihydrobenzofuran-5-yl)methyl)piperazin-1-yl)-2-azaspiro[3.3]heptan-2-yl)benzamide] | 0.25 nM | 1.5 | 0.19 nM | 0.34 nM | 0.49 nM | 3 | 0.17 nM | 0.17 nM |  | 
CC(C)c1ccccc1C1CN(C2CCC2)CCN1C1CC2(CCN(c3ccc(C(=O)NS(=O)(=O)c4ccc(NC[C@H]5CC[C@](C)(O)CC5)c([N+](=O)[O-])c4)c(Oc4cnc5[nH]ccc5c4)c3)CC2)C1 (stereo partly drawn) [Example 5, 2-((1H-pyrrolo[2,3-b]pyridin-5-yl)oxy)-4-(2-(4-cyclobutyl-2-(2-isopropylphenyl)piperazin-1-yl)-7-azaspiro[3.5]nonan-7-yl)-N-((4-((((1r,4r)-4-hydroxy-4-methylcyclohexyl)methyl)amino)-3-nitrophenyl)sulfonyl)benzamide] | 0.32 nM | 12 | 0.58 nM | 5.33 nM | 0.45 nM | 12.2 | 0.037 nM | 0.037 nM |  | 
